Assay results from the NIST ThermoML archive (doi:10.1016/j.jct.2007.05.011).

Assay: xn = mol fraction of the nth substance listed
Conditions: 101 kPa, Liquid; for mass density: Vibrating tube method

NCCO.O=CO [2-hydroxyethylammonium formate] + CO
Conditions | mass density, 308.15 K [kg/m3] | mass density, 310.65 K [kg/m3] | mass density, 313.15 K [kg/m3] | mass density, 315.65 K [kg/m3] | speed of sound, 305.65 K [m/s] | speed of sound, 308.15 K [m/s] | speed of sound, 310.65 K [m/s] | speed of sound, 313.15 K [m/s]
x2 = 0 | 1169.39 | 1167.62 | 1165.84 | 1164.06 | 1690.8 | 1684.8 | 1678.7 | 1672.7
x2 = 0.055 | 1162.82 | 1161.16 | 1159.51 | 1157.86 | 1708.1 | 1702.9 | 1697.8 | 1692.7
x2 = 0.098 | 1156.3 | 1154.64 | 1152.98 | 1151.33 | 1696.5 | 1691.3 | 1686.1 | 1681
x2 = 0.193 | 1139.55 | 1137.87 | 1136.19 | 1134.51 | 1665.8 | 1660.5 | 1655.3 | 1650
x2 = 0.296 | 1118.84 | 1117.13 | 1115.42 | 1113.71 | 1628.2 | 1622.8 | 1617.4 | 1612
x2 = 0.399 | 1094.27 | 1092.53 | 1090.78 | 1089.03 | 1584.1 | 1578.5 | 1573 | 1567.5
x2 = 0.5 | 1065.38 | 1063.59 | 1061.81 | – | 1532.8 | 1527.1 | 1521.4 | 1515.6
x2 = 0.598 | 1031.9 | 1030.06 | 1028.22 | – | 1474 | 1468 | 1462 | 1456
x2 = 0.701 | 990.06 | 988.146 | 986.228 | – | 1403.2 | 1396.8 | 1390.5 | 1384.2
x2 = 0.799 | 937.959 | 935.95 | 933.936 | – | 1318 | 1311.2 | 1304.5 | 1297.8
x2 = 0.9 | 869.95 | 867.803 | 865.647 | – | 1213.2 | 1206 | 1198.7 | 1191.4
x2 = 0.951 | 826.572 | 824.316 | 822.053 | – | 1148.9 | 1141.2 | 1133.6 | 1125.9
